Earlier results, collected in patent US6969706B1, “Preserved pharmaceutical compositions comprising cyclodextrins” (Allergan, Inc., priority 2004, dated 2005).

Tested on: a number of pathogens
Conditions: HPβCD solutions; reported by Loftsson et al. 1992

Compound	preservative activity in the presence of 2-hydroxypropyl-β-cyclodextrin
COC(=O)c1ccc(O)cc1 [methylparaben]	significantly reduced preservative activity
N=C(NCCCCCCNC(=N)NC(=N)Nc1ccc(Cl)cc1)NC(=N)Nc1ccc(Cl)cc1.O=C(O)[C@H](O)[C@@H](O)[C@H](O)[C@H](O)CO.O=C(O)[C@H](O)[C@@H](O)[C@H](O)[C@H](O)CO [chlorhexidine gluconate]	did possess preservative activity
benzalkonium chloride	did possess preservative activity
CCCOC(=O)c1ccc(O)cc1 [propylparaben]	significantly reduced preservative activity
